The structures appear in SMILES notation.

The source of these data is patent US20240309014A1, “MACROCYCLIC COMPOUNDS AND USES THEREOF” (President and Fellows of Harvard College, priority 2017, published 2024).

For series [1], the system named is HSC-2-Luc inoculated into tongue. Description: HSC-2 orthotopic transplantation mouse model. It counts as in vivo, nude mice. The conditions noted are these: Compound (1) 0.09 mg/kg.
Series [2] concerns human breast cancer cell line HCC1954. Description: HCC1954 growth inhibition assay (Test Example 24). The following applies: HCC1954, 72 h, 3 days incubation, CellTiter-Glo. Type of series: cell-based. As for the experimental part: (§1) In this assay, the growth inhibitory activities of Compound D-6 (Example 26), E-2, G-4, H-2, I-2, J-1, K-2, L-6, M-3, and N-1 in a human breast cancer cell line HCCl954 were measured. HCC1954 cells were maintained in RPMI-1640 medium modified to contain 2 mM L-glutamine, 10 mM HEPES, 1 mM sodium pyruvate, 4500 mg/L glucose, and 1500 mg/L sodium bicarbonate (ATCC 30-2001) containing 10% fetal bovine serum (FBS: Sigma, 172012), and penicillin and streptomycin (Wako Pure Chemical Industries, Ltd., 168-23191) in a 5% CO2 incubator (37° C.). To each well of a 96 well plate (Becton, Dickinson and Company, 353219), 75 μL of HCC1954 cell suspension adjusted to a concentration of 4×10^4 cells/mL with the culture medium was added, and the cells were incubated overnight in a 5% CO2 incubator (37° C.). On the next day, 25 μL of each compound in three-fold dilution series suspended in the culture medium was added to each well, and the resultant was incubated for 3 days in a 5% CO2 incubator (37° C.). Then, cell viability was determined by CellTiter-Glo® Luminescent Cell Viability Assay (Promega) with EnVision 2103 Multilabel Reader (Perkin-Elmer, Wellesley, MA). Value of the wells containing cells without adding the test substance was defined as 100% and the value of the wells containing no cells was defined as 0%. The concentration of the test substance necessary for inhibiting the cell growth by 50% (i.e., an IC50 value) was calculated, and summarized in Table 14.

The subject of series [3] is human lung cancer cell line NCI-H23. Kind of series: NCI-H23 growth inhibition assay. It counts as cell-based. The following applies: NCI-H23, 72 h, 3 days incubation, CellTiter-Glo. Here is the method: as §1, with “1-2,” for “I-2,”, “lung” for “breast”, “NCI-H23” for “HCCl954”, “NCI-H23” for “HCC1954”, “RPM-1640 (Wako Pure Chemical Industries, Ltd., 187-02021)” for “RPMI-1640”, “medium” for “medium modified to contain 2 mM L-glutamine, 10 mM HEPES, 1 mM sodium pyruvate, 4500 mg/L glucose, and 1500 mg/L sodium bicarbonate (ATCC 30-2001)”

The next series relates to MES-SA cells. Kind of series: MES-SA growth inhibition assay. The conditions noted are these: Homo sapiens, 72 h, 3 days incubation, CellTiter-Glo, read-out: Cell growth inhibition IC50 (nM) MES-SA. Type of series: cell-based. As for the experimental part:
as §1, with “1-2,” for “I-2,”, “lung” for “breast”, “MES-SA” for “HCCl954”, “MES-SA” for “HCC1954”, “RPM-1640 (Wako Pure Chemical Industries, Ltd., 187-02021)” for “RPMI-1640”, “medium” for “medium modified to contain 2 mM L-glutamine, 10 mM HEPES, 1 mM sodium pyruvate, 4500 mg/L glucose, and 1500 mg/L sodium bicarbonate (ATCC 30-2001)”

For series [4] the following is noted: in comparison with Halichondrin B; cited from earlier work.
The conditions of series [5]: in vitro and in vivo; cited from earlier work.

For the molecule `N.N.[Cl][Pt][Cl]` [Cisplatin, cisplatin, reference compound], the “ILS (%)” value in series [1] (single agent, Q7Dx3: cetuximab 5 mg/kg, cisplatin 5 mg/kg) came out at 0%; in series [1] (with cetuximab 5 mg/kg, Q7Dx3: cisplatin 5 mg/kg) it was 150%.
Consider `C=C1C[C@@H]2CC[C@@]34CC5O[C@H]6[C@@H](O3)[C@H]3O[C@H](CC[C@@H]3O[C@H]6C5O4)CC(=O)O[C@@H]3[C@@H](C)[C@@H]4O[C@@H]5C[C@]6(C[C@@H]7O[C@]8(C[C@H](C)[C@@H]9O[C@H](CO)[C@H](O)C[C@@H]9O8)C[C@H](C)[C@@H]7O6)O[C@@H]5C[C@@H]4O[C@H]3C[C@H]3O[C@@H](CC[C@@H]1O2)C[C@@H](C)C3=C` [Compound D-6], for which the results for the IC50 (in series [2]; in series [3]; in the series with MES-SA cells) were 0.0104 nM, 0.022 nM and 0.0138 nM, respectively.
As to `C=C1C[C@@H]2CC[C@@]34CC5O[C@H]6[C@@H](O3)[C@H]3O[C@H](CC[C@@H]3O[C@H]6C5O4)CC(=O)O[C@@H]3[C@@H](C)[C@@H]4O[C@@H]5C[C@]6(C[C@@H]7O[C@]8(C[C@H](C)[C@@H]9O[C@H](CCO)[C@H](O)C[C@@H]9O8)C[C@H](C)[C@@H]7O6)O[C@@H]5C[C@@H]4O[C@H]3C[C@H]3O[C@@H](CC[C@@H]1O2)C[C@@H](C)C3=C` [Compound E-2], the values for the IC50 (in series [2]; in series [3]; in the series on MES-SA cells) were 0.0805 nM, 0.595 nM and 0.856 nM, respectively.
In the case of `C=C1C[C@@H]2CC[C@@]34C[C@H]5O[C@H]6[C@@H](O3)[C@H]3O[C@H](CC[C@@H]3O[C@H]6[C@H]5O4)CC(=O)O[C@@H]3[C@@H](C)[C@@H]4O[C@@H]5C[C@]6(C[C@@H]7O[C@]8(C[C@H](C)[C@@H]9O[C@H](CCN)[C@H](O)C[C@@H]9O8)C[C@H](C)[C@@H]7O6)O[C@@H]5C[C@@H]4O[C@H]3C[C@H]3O[C@@H](CC[C@@H]1O2)C[C@@H](C)C3=C` [Compound G-4], the IC50 in series [2] was determined as 0.0335 nM; in series [3], 0.136 nM; in the series on MES-SA cells it was 0.326 nM.
On the same counts, the results for `C=C1C[C@@H]2CC[C@@]34CC5O[C@H]6[C@@H](O3)[C@H]3O[C@H](CC[C@@H]3O[C@H]6C5O4)CC(=O)O[C@@H]3[C@@H](C)[C@@H]4O[C@@H]5C[C@]6(C[C@@H]7O[C@]8(C[C@H](C)[C@@H]9O[C@H](CCOC)[C@H](O)C[C@@H]9O8)C[C@H](C)[C@@H]7O6)O[C@@H]5C[C@@H]4O[C@H]3C[C@H]3O[C@@H](CC[C@@H]1O2)C[C@@H](C)C3=C` [Compound I-2] are 0.00624 nM, 0.103 nM and 0.057 nM.
On the same counts, the results for `C=C1C[C@@H]2CC[C@@]34C[C@]5(O)O[C@H]6[C@@H](O3)[C@H]3O[C@H](CC[C@@H]3O[C@H]6C5O4)CC(=O)O[C@@H]3[C@@H](C)[C@@H]4O[C@@H]5C[C@]6(C[C@@H]7O[C@]8(C[C@H](C)[C@@H]9O[C@H](CCO)[C@H](O)C[C@@H]9O8)C[C@H](C)[C@@H]7O6)O[C@@H]5C[C@@H]4O[C@H]3C[C@H]3O[C@@H](CC[C@@H]1O2)C[C@@H](C)C3=C` [Compound J-1] are 0.00308 nM, 0.00992 nM and 0.0102 nM.
In the case of `C=C1C[C@@H]2CC[C@@]34CC5O[C@H]6[C@@H](O3)[C@H]3O[C@H](CC[C@@H]3O[C@H]6C5O4)CC(=O)O[C@@H]3[C@@H](C)[C@@H]4O[C@@H]5C[C@]6(C[C@@H]7O[C@]8(C[C@H](C)[C@@H]9O[C@H]([C@@H](O)C[C@@H](O)CN)C[C@@H]9O8)C[C@H](C)[C@@H]7O6)O[C@@H]5C[C@@H]4O[C@H]3C[C@H]3O[C@@H](CC[C@@H]1O2)C[C@@H](C)C3=C` [Compound K-2], the IC50 is 0.07 nM in series [2], 0.461 nM in series [3] and 0.341 nM in the series on MES-SA cells.
For the molecule `C=C1C[C@@H]2CC[C@@]34C[C@@]5(O)O[C@H]6[C@@H](O3)[C@H]3O[C@H](CC[C@@H]3O[C@H]6[C@H]5O4)CC(=O)O[C@@H]3[C@@H](C)[C@@H]4O[C@@H]5C[C@]6(C[C@@H]7O[C@]8(C[C@H](C)[C@@H]9O[C@H]([C@@H](O)C[C@@H](O)CN)C[C@@H]9O8)C[C@H](C)[C@@H]7O6)O[C@@H]5C[C@@H]4O[C@H]3C[C@H]3O[C@@H](CC[C@@H]1O2)C[C@@H](C)C3=C` [Compound L-6], the IC50 in series [2] worked out at 0.269 nM; in series [3], 6.81 nM; in the series with MES-SA cells, 2.79 nM.
Take `C=C1C[C@@H]2CC[C@@]34CC5O[C@H]6[C@@H](O3)[C@H]3O[C@H](CC[C@@H]3O[C@H]6C5O4)CC(=O)O[C@@H]3[C@@H](C)[C@@H]4O[C@@H]5C[C@]6(C[C@@H]7O[C@]8(C[C@H](C)[C@@H]9O[C@H]([C@@H](O)CCO)C[C@@H]9O8)C[C@H](C)[C@@H]7O6)O[C@@H]5C[C@@H]4O[C@H]3C[C@H]3O[C@@H](CC[C@@H]1O2)C[C@@H](C)C3=C` [Compound M-3]: the IC50 turned out to be 0.0101 nM in series [2], 0.0199 nM in series [3] and 0.0141 nM in the series on MES-SA cells.
On the same counts, the results for `C=C1C[C@@H]2CC[C@@]34CC5O[C@H]6[C@@H](O3)[C@H]3O[C@H](CC[C@@H]3O[C@H]6C5O4)CC(=O)O[C@@H]3[C@@H](C)[C@@H]4O[C@@H]5C[C@]6(C[C@@H]7O[C@]8(C[C@H](C)[C@@H]9O[C@H]([C@@H](O)CCN)C[C@@H]9O8)C[C@H](C)[C@@H]7O6)O[C@@H]5C[C@@H]4O[C@H]3C[C@H]3O[C@@H](CC[C@@H]1O2)C[C@@H](C)C3=C` [Compound N-1] are 0.08 nM, 1.53 nM and 2.88 nM.
For the molecule `C=C1C[C@@H]2CC[C@@]34C[C@@]5(O)O[C@H]6[C@@H](O3)[C@H]3O[C@H](CC[C@@H]3O[C@H]6[C@H]5O4)CC(=O)O[C@@H]3[C@@H](C)[C@@H]4O[C@@H]5C[C@]6(C[C@@H]7O[C@]8(C[C@H](C)[C@@H]9O[C@H]([C@@H](O)C[C@@H](O)CO)C[C@@H]9O8)C[C@H](C)[C@@H]7O6)O[C@@H]5C[C@@H]4O[C@H]3C[C@H]3O[C@@H](CC[C@@H]1O2)C[C@@H](C)C3=C` [Halichondrin C], the “stability in aqueous solution” value in series [4] was “unstable in aqueous solution in comparison with Halichondrin B”.
In the case of `C=C1C[C@@H]2CC[C@@]34C[C@H]5O[C@H]6[C@@H](O3)[C@H]3O[C@H](CC[C@@H]3O[C@H]6[C@H]5O4)CC(=O)O[C@@H]3[C@@H](C)[C@@H]4O[C@@H]5C[C@]6(CC7O[C@@]8(C[C@H](C)C7O6)C[C@H](C)[C@@H]6O[C@H](CC(=O)O)[C@H](O)C[C@@H]6O8)O[C@@H]5CC4O[C@H]3C[C@H]3O[C@@H](CC[C@@H]1O2)C[C@@H](C)C3=C` (stereo partly shown) [Norhalichondrin B], the “activity relative to Halichondrin B” value in series [5] was “much weaker than Halichondrin B”.
